Source: PMC10174618, “Monoterpenoid aryl hydrocarbon receptor allosteric antagonists protect against ultraviolet skin damage in female mice” (Nature Communications, 2023)

How the values were obtained:
Assay in all cases: biochemical
Design in all cases: KINOMEscan scanMAX active site-directed competition binding assay, percent of control, 468 kinases
Settings in all cases: competition binding, percent of control
CDK4 = CDK4 (Homo sapiens, UniProt P11802)
Summary of the method: (§1)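 Single-concentration screen (100 μM S-carvone) in a competition binding panel of 468 human kinases (KINOMEscan scanMAX); results given as percent of control, hit cutoff 35%.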

ZAK = biological target: T1, ZAK (Homo sapiens, UniProt Q9NYL2)
T1 construct: gene MAP3K20
T1 sequence (Q9NYL2 whole entry): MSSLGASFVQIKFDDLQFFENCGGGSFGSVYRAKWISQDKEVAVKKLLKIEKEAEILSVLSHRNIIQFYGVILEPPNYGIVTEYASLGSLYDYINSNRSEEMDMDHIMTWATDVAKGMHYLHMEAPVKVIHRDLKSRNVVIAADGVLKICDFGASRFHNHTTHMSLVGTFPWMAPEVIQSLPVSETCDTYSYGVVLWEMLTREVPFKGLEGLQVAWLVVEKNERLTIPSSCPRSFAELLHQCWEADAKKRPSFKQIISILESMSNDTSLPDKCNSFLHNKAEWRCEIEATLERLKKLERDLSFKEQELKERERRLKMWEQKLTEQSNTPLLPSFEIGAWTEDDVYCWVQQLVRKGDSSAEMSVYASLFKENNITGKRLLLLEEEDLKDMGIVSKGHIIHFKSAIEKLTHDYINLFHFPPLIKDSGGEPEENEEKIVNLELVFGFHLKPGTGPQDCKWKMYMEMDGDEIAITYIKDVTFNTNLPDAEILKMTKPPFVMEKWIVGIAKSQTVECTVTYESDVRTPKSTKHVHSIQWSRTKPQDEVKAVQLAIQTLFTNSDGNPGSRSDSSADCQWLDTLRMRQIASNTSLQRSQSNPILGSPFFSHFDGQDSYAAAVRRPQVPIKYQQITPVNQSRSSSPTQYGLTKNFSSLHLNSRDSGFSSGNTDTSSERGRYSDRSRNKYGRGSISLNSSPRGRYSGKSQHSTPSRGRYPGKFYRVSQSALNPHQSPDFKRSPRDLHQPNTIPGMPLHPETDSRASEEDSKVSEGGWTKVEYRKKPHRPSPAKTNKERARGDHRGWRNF
Summary of the method: as §1

EGFR(L747-T751del,Sins) = EGFR(L747-T751del,Sins) (Homo sapiens, UniProt P00533, DEL747-750/T751S)
Summary of the method: as §1

GRK2 = GRK2 (Homo sapiens, UniProt P25098)
Sequence of GRK2 (P25098 whole entry): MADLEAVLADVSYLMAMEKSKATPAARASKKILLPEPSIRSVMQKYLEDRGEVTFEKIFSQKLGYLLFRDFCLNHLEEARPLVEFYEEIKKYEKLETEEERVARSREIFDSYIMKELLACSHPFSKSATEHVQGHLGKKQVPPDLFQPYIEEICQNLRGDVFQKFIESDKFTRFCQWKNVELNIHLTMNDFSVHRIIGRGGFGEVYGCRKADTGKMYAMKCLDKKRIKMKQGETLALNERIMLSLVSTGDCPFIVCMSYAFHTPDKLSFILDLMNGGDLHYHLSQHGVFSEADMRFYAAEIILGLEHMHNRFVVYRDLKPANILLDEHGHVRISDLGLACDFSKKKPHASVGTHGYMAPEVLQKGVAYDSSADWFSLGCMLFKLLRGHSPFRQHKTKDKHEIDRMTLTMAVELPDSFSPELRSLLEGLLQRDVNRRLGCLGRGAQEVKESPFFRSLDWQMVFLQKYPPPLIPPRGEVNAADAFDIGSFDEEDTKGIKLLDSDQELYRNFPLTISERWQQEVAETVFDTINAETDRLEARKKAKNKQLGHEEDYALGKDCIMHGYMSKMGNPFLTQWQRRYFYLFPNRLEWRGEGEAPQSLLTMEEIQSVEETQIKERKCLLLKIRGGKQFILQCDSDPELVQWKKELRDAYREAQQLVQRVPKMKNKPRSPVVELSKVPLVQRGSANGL
Summary of the method: as §1

PKAC-beta = biological target: T2, PKAC-beta (Homo sapiens, UniProt P22694)
T2 construct: gene PRKACB
Summary of the method: as §1

FGFR4 = FGFR4 (Homo sapiens, UniProt P22455)
Summary of the method: as §1

EGFR(S752-I759del) = EGFR(S752-I759del) (Homo sapiens, UniProt P00533, DEL752-759)
Summary of the method: as §1

NEK4 = NEK4 (Homo sapiens, UniProt P51957)
Sequence of NEK4 (P51957 whole entry): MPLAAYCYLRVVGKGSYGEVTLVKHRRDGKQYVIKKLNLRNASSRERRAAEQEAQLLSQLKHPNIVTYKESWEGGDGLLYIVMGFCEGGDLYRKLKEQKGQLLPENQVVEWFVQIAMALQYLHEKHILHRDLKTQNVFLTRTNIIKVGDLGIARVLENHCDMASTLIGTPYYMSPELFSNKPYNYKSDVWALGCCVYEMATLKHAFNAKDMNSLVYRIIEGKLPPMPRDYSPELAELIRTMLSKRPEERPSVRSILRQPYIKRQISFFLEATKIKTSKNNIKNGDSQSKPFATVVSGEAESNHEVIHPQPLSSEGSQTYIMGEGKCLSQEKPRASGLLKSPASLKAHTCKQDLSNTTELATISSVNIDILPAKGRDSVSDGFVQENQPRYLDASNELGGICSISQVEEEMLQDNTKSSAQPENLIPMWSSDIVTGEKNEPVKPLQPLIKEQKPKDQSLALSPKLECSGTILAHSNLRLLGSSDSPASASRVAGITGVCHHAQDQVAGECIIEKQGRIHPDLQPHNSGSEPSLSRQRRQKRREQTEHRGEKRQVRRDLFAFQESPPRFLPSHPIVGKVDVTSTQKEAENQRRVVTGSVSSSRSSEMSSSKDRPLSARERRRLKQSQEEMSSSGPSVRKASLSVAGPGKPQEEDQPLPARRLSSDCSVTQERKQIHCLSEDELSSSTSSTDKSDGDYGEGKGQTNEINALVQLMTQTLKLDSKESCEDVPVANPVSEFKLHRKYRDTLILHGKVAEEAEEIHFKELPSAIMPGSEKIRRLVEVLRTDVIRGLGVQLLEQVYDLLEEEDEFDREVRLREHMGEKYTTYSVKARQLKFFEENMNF
Summary of the method: as §1

TGFBR1 = TGFBR1 (Homo sapiens, UniProt P36897)
Summary of the method: as §1

CDC2L2 = biological target: T3, CDC2L2 (Homo sapiens, UniProt Q9UQ88)
T3 construct: gene CDK11A
T3 sequence (Q9UQ88 whole entry): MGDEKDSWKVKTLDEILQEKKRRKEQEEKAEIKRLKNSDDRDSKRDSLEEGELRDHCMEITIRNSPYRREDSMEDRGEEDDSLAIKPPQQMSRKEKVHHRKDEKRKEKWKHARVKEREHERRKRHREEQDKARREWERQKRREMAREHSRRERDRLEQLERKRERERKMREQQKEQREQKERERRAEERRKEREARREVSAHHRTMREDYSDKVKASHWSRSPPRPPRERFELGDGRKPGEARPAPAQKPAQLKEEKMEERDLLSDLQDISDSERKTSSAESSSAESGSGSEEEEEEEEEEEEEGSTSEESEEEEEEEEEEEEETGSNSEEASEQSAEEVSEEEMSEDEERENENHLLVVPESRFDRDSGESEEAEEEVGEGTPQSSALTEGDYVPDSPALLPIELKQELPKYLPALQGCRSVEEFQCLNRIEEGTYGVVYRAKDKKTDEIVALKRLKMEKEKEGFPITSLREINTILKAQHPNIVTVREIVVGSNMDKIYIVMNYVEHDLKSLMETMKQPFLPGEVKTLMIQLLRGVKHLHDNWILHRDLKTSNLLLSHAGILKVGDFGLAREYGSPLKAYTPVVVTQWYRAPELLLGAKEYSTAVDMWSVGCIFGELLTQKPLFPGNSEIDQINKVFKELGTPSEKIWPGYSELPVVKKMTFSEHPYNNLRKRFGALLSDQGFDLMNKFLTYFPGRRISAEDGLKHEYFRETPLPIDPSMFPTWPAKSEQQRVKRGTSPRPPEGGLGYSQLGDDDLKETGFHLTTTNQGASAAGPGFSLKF
Summary of the method: as §1

MLK1 = biological target: T4, MLK1 (Homo sapiens, UniProt P80192)
T4 construct: gene MAP3K9
Summary of the method: as §1

ABL2 = ABL2 (Homo sapiens, UniProt P42684)
Summary of the method: as §1

[1] = biological target: T5, JAK1(JH1domain-catalytic) (Homo sapiens, UniProt P23458)
T5 construct: JH1domain-catalytic
T5 sequence (P23458 whole entry): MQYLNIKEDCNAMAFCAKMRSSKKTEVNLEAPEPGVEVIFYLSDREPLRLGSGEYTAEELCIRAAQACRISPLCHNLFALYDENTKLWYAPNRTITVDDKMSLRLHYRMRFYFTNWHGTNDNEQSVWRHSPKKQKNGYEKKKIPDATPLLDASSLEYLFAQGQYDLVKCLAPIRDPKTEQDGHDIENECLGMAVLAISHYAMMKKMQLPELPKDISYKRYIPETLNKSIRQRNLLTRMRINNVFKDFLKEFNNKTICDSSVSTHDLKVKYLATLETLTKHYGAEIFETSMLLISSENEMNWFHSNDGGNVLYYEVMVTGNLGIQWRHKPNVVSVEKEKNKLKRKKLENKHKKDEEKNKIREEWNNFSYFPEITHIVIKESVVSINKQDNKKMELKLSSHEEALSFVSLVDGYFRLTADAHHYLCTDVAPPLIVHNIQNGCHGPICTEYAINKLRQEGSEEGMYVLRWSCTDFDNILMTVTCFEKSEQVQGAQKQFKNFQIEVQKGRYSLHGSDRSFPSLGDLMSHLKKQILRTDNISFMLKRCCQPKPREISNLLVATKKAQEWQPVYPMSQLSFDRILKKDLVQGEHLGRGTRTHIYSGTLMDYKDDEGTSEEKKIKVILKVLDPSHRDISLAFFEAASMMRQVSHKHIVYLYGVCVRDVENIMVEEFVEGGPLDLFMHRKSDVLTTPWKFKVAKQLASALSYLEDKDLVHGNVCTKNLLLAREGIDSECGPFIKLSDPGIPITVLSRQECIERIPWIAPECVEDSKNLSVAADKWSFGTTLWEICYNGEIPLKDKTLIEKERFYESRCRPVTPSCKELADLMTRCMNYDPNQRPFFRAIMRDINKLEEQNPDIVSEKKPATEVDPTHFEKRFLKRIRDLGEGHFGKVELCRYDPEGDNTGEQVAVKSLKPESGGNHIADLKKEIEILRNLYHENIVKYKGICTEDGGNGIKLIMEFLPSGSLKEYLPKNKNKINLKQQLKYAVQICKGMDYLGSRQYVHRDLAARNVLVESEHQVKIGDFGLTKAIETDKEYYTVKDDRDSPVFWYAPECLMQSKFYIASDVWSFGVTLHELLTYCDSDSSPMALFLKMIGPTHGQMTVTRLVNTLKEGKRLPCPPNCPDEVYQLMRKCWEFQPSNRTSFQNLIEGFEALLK
Summary of the method: as §1

PIK3CB = PIK3CB (Homo sapiens, UniProt P42338)
Summary of the method: as §1

RET = RET (Homo sapiens, UniProt P07949)
Summary of the method: as §1

FLT3(ITD,D835V) = FLT3(ITD,D835V) (Homo sapiens, UniProt P36888, D835V/ITD)
Summary of the method: as §1

BRAF = BRAF (Homo sapiens, UniProt P15056)
Summary of the method: as §1

KIT-autoinhibited = KIT-autoinhibited (Homo sapiens, UniProt P10721)
Summary of the method: as §1

CDC2L1 = biological target: T6, CDC2L1 (Homo sapiens, UniProt P21127)
T6 construct: gene CDK11B
T6 sequence (P21127 whole entry): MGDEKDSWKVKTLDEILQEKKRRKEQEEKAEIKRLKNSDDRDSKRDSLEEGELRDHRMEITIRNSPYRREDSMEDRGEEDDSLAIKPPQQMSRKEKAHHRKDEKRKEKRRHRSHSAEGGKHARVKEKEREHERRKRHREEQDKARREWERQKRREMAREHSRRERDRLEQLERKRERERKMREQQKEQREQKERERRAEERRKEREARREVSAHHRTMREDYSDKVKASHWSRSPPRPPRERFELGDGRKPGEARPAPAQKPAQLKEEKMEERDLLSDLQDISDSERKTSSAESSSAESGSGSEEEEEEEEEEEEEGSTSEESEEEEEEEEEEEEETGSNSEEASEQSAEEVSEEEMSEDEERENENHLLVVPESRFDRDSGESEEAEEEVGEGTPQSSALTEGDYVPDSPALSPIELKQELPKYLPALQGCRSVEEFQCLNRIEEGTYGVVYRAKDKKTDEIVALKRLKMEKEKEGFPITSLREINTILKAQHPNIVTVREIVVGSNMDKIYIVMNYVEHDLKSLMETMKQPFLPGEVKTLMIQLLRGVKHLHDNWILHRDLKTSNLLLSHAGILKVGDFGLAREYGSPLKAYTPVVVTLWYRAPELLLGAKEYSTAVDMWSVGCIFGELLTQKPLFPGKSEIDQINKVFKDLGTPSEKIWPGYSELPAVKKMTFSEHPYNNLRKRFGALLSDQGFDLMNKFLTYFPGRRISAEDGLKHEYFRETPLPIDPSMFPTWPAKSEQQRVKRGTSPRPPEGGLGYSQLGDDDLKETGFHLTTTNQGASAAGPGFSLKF
Summary of the method: as §1

[2] = biological target: T7, ABL1(Y253F)-phosphorylated (Homo sapiens, UniProt P00519, Y253F)
T7 construct: phosphorylated
Summary of the method: as §1

CAMKK1 = CAMKK1 (Homo sapiens, UniProt Q8N5S9)
Summary of the method: as §1

C=C(C)[C@H]1CC=C(C)C(=O)C1 [S-carvone]
remaining binding at 100 µM (CDK4): 71% | remaining binding at 100 µM (ZAK): 72% | remaining binding at 100 µM (EGFR(L747-T751del,Sins)): 78% | remaining binding at 100 µM (GRK2): 58% | remaining binding at 100 µM (PKAC-beta): 84% | remaining binding at 100 µM (FGFR4): 92% | remaining binding at 100 µM (EGFR(S752-I759del)): 66% | remaining binding at 100 µM (NEK4): 97% | remaining binding at 100 µM (TGFBR1): 100% | remaining binding at 100 µM (CDC2L2): 82% | remaining binding at 100 µM (MLK1): 92% | remaining binding at 100 µM (ABL2): 85% | remaining binding at 100 µM [1]: 100% | remaining binding at 100 µM (PIK3CB): 88% | remaining binding at 100 µM (RET): 82% | remaining binding at 100 µM (FLT3(ITD,D835V)): 85% | remaining binding at 100 µM (BRAF): 83% | remaining binding at 100 µM (KIT-autoinhibited): 74% | remaining binding at 100 µM (CDC2L1): 90% | remaining binding at 100 µM [2]: 67% | remaining binding at 100 µM (CAMKK1): 94%
